The source of these data is US20050107400A1, “Use of pyrazolopyridines as therapeutic compounds” (priority 2001, published 2005).

A word on the IC50: it is the concentration that gives 50% inhibition.

For the first experiment, the system named is HSV-1. Nature of the experiment: HSV-1 replication in infected Vero 76 cells, DNA hybridization capture assay. It counts as cell-based, herpes simplex virus 1. The conditions noted are these: Human alphaherpesvirus 1, Vero 76. On the procedure: a) Tissue Culture and HSV Infection.
Vero 76 cells were maintained in MEM with Earle's salts, L-glutamine, 8% FBS (Hyclone, A-1111-L) and 100 units/mL Penicillin-100 μg/mL Streptomycin. For assay conditions, FBS was reduced to 2%. Cells are seeded into 96-well tissue culture plates at a density of 5×10^4 cells/well after being incubated for 45 min at 37° C. in the presence of HSV-1 or HSV-2 (MOI=0.001). Test compounds are added to the wells and the plates are incubated at 37° C. for 40-48 hours. Cell lysates are prepared as follows: media was removed and replaced with 150 μL/well 0.2 N NaOH with 1% Igepal CA 630 or NP-40. Plates were incubated up to 14 days at room temperature in a humidified chamber to prevent evaporation.
(b) Preparation of Detection DNA.
For the detection probe, a gel-purified, digoxigenin-labeled, […] PCR fragment of the HSV UL-15 sequence was utilized. PCR conditions included 0.5 μM primers, 180 μM dTTP, 20 μM dUTP-digoxigenin (Boehringer Mannheim 1558706), 200 μM each of dATP, dCTP, and dGTP, 1×PCR Buffer II (Perkin Elmer), 2.5 mM MgCl2, 0.025 units/μL of AmpliTaq Gold polymerase (Perkin Elmer), and 5 ng of gel-purified HSV DNA per 100 μL Extension conditions were 10 min at 95° C., followed by 30 cycles of 95° C. for 1 min, 55° C. for 30 sec, and 72° C. for 2 min. The amplification was completed with a 10-min incubation at 72° C. Primers were selected to amplify a 728 bp probe spanning a section of the HSV1 UL15 open reading frame (nucleotides 249-977). Single-stranded transcripts were purified with Promega M13 Wizard kits. The final product was mixed 1:1 with a mixture of 6 M GuSCN, 100 mM EDTA and 200 μg/mL herring sperm DNA and stored at 4° C.
(c) Preparation of Capture Plates.
The capture DNA plasmid (HSV UL13 region in pUC) was linearized by cutting with Xba I, denatured for 15 min at 95° C. and diluted immediately into Reacti-Bind DNA Coating Solution (Pierce, 17250, diluted 1:1 with TE buffer, pH 8) at 1 ng/μL. 75 μL/well were added to Corning (#3922 or 9690) white 96-well plates and incubated at room temperature for at least 4 hrs before washing twice with 300 μL/well 0.2×SSC/0.05% Tween-20 (SSC/T buffer). The plates were then incubated overnight at room temperature with 150 μL/well 0.2 N NaOH, 1% IGEPAL and 10 μg/mL herring sperm DNA.
Twenty-seven (27) μL of cell lysate was combined with 45 μL of hybridization solution (final concentration: 3M GuSCN, 50 mM EDTA, 100 μg/ml salmon sperm DNA, 5×Denhardt's solution, 0.25×APE, and 5 ng of the digoxigenin-labeled detection probe). APE is 1.5 M NH4-acetate, 0.15 M NH4H2 phosphate, and 5 mM EDTA adjusted to pH 6.0. Mineral oil (50 μL) was added to prevent evaporation. The hybridization plates were incubated at 95° C. for 10 minutes to denature the DNA, then incubated at 42° C. overnight. The wells were washed 6× with 300 μL/well SSC/T buffer then incubated with 75 μL/well anti-digoxigenin-HRP-conjugated antibody (Boehringer Mannheim 1207733, 1:5000 in TE) for 30 min at room temperature. The wells were washed 6× with 300 μL/well with PBS/0.05% Tween-20 before 75 μL/well SuperSignal LBA substrate (Pierce) was added. The plates were incubated at room temperature for 30 minutes and chemiluminescence was measured in a Wallac Victor reader.
The following results were obtained for HSV-1.
For `CN1CCN(CCCNc2nccc(-c3c(-c4ccc(F)cc4)nn4cc(C(F)(F)F)ccc34)n2)CC1` [Example 32, N-{4-[2-(4-fluorophenyl)-6-(trifluoromethyl)pyrazolo-[1,5-a]pyridin-3-yl]pyrimidin-2-yl}-N-[3-(4-methylpiperazin-1-yl)propyl]amine], the 50% inhibitory concentration (IC50) turned out to be 10 µM.

The same experiment, now with this note: Human alphaherpesvirus 1; HSV-1 in Vero 76 cells, MOI=0.001, 40-48 hours at 37° C.; read-out: IC50.
As to `Nc1nccc(-c2c(-c3ccc(F)cc3)nn3ccccc23)n1` [Example 18, 4-[2-(4-Fluorophenyl)pyrazolo[1,5-a]pyridin-3-yl]-2-pyrimidinamine], the IC50 came to 5.4 µM. Regarding `Nc1nccc(-c2c(-c3ccc(F)cc3)nn3cc(C(F)(F)F)ccc23)n1` [Example 19, 4-[2-(4-Fluorophenyl)-6-trifluoromethylpyrazolo[1,5-a]pyridin-3-yl]-2-pyrimidinamine], the IC50 is more than 40 µM.

In the case of `Fc1ccc(-c2nn3cc(C(F)(F)F)ccc3c2-c2ccnc(NCc3ccccc3)n2)cc1` [Example 20, N-Benzyl-4-[2-(4-fluorophenyl)-6-trifluoromethylpyrazolo[1,5-a]pyridin-3-yl]-2-pyrimidinamine], the IC50 is 16 µM. Still for that read-out and setting: the same measure for `Fc1ccc(-c2nn3cc(C(F)(F)F)ccc3c2-c2ccnc(NC3CC3)n2)cc1` [Example 21, N-Cyclopropyl-4-[2-(4-fluorophenyl)-6-trifluoromethylpyrazolo[1,5-a]pyridin-3-yl]-2-pyrimidinamine]: 0.8 µM; for `Fc1ccc(-c2nn3cc(C(F)(F)F)ccc3c2-c2ccnc(NCC(F)(F)F)n2)cc1` [Example 22, 4-[2-(4-Fluorophenyl)-6-trifluoromethylpyrazolo[1,5-a]pyridin-3-yl]-N-(2,2,2-trifluoroethyl)-2-pyrimidinamine]: 4.3 µM; for `OCCCNc1nccc(-c2c(-c3ccc(F)cc3)nn3cc(C(F)(F)F)ccc23)n1` [Example 23, 3-(4-[2-(4-Fluorophenyl)-6-trifluoromethylpyrazolo[1,5-a]pyridin-3-yl]-2-pyrimidinylamino)-1-propanol]: 1 µM. Turning to `N#Cc1ccc2c(-c3ccnc(NC4CC4)n3)c(-c3ccc(F)cc3)nn2c1` [Example 24, N-Cyclopropyl-4-[6-cyano-2-(4-fluorophenyl)pyrazolo[1,5-a]pyridin-3-yl]-2-pyrimidinamine], the 50% inhibitory concentration (IC50) amounted to 0.2 µM. For the compound `NC(=O)c1ccc2c(-c3ccnc(NCCCO)n3)c(-c3ccc(F)cc3)nn2c1` [Example 25, 2-(4-Fluorophenyl)-3-(4-(2-(3-hydroxypropyl)amino)pyrimidinyl)-6-pyrazolo-[1,5-a]pyridinylcarboxamide], the IC50 came out at 5.5 µM. On to `Fc1ccc(-c2nn3ccccc3c2-c2ccnc(NCCc3cnc[nH]3)n2)cc1` [Example 26, 4-[2-(4-Fluorophenyl)pyrazolo[1,5-a]pyridin-3-yl]-N-[2-(1H-imidazol-5-yl)ethyl]-2-pyrimidinamine], for which the IC50 was 0.15 µM.

As to `Fc1ccc(-c2nn3ccccc3c2-c2ccnc(NCc3cccnc3)n2)cc1` [Example 27, 4-[2-(4-Fluorophenyl)pyrazolo[1,5-a]pyridin-3-yl]-N-(3-pyridinylmethyl)-2-pyrimidinamine], the IC50 stood at 0.5 µM. On the same count and under the same terms, then `Fc1ccc(-c2nn3ccccc3c2-c2ccnc(NCc3ccccn3)n2)cc1` [Example 28, 4-[2-(4-Fluorophenyl)pyrazolo[1,5-a]pyridin-3-yl]-N-(2-pyridinylmethyl)-2-pyrimidinamine], with 0.73 µM; and `Fc1ccc(-c2nn3ccccc3c2-c2ccnc(NCc3ccncc3)n2)cc1` [Example 29, 4-[2-(4-Fluorophenyl)pyrazolo[1,5-a]pyridin-3-yl]-N-(4-pyridinylmethyl)-2-pyrimidinamine], with 10 µM. Take `CCCCCNc1cc(-c2c(-c3ccc(F)cc3)nn3ccccc23)ccn1` [Example 30, 4-[2-(4-Fluorophenyl)pyrazolo[1,5-a]pyridin-3-yl]-N-pentyl-2-pyridinamine]: the IC50 is 4 µM. Consider `CCCCNc1nccc(-c2c(-c3ccc(F)cc3)nn3cc(C(F)(F)F)ccc23)n1` [Example 31, N-Butyl-4-[2-(4-fluorophenyl)-6-trifluoromethylpyrazolo-[1,5-a]pyridin-3-yl]-2-pyrimidinamine], for which the IC50 turned out to be 1.7 µM.

As for `Cc1ccc2c(-c3ccnc(NC4CCCC4)n3)c(-c3ccc(F)cc3)nn2c1` [Example 34, N-Cyclopentyl-4-[2-(4-fluorophenyl)-6-methylpyrazolo[1,5-a]pyridin-3-yl]-2-pyrimidinamine], the IC50 is 2 µM. Still for that read-out and setting: the same measure for `Fc1ccc(-c2nn3cc(CNC4CCCC4)ccc3c2-c2ccnc(NC3CCCC3)n2)cc1` [Example 35, N-Cyclopentyl-4-[6-[(cyclopentylamino)methyl]-2-(4-fluorophenyl)-pyrazolo[1,5-a]pyridin-3-yl]-2-pyrimidinamine]: 4.5 µM. Still for that read-out and setting: then `Fc1ccc(-c2nn3ccc(Cl)cc3c2-c2ccnc(NC3CCCC3)n2)cc1` [Example 36, 4-[5-Chloro-2-(4-fluorophenyl)pyrazolo[1,5-a]pyridin-3-yl]-N-cyclopentyl-2-pyrimidinamine], with 5 µM; and `Fc1ccc(-c2nn3ccc(N4CCCC4)cc3c2-c2ccnc(NC3CCCC3)n2)cc1` [Example 37, N-Cyclopentyl-4-[2-(4-fluorophenyl)-5-(1-pyrrolidinyl)pyrazolo[1,5-a]pyridin-3-yl]-2-pyrimidinamine], with 1.4 µM; and `COc1ccc(-c2nn3ccc(Cl)cc3c2-c2ccnc(NC3CCCC3)n2)cc1` [Example 38, 4-[5-Chloro-2-(4-methoxyphenyl)pyrazolo[1,5-a]pyridin-3-yl]-N-cyclopentyl-2-pyrimidinamine], with 3.8 µM. With `O=C1CCCN1CCCNc1cc(-c2c(-c3ccc(F)cc3)nn3ccccc23)ccn1` [Example 39, 1-[3-({4-[2-(4-fluorophenyl)-pyrazolo[1,5-a]pyridin-3-yl]-2-pyridinyl}amino)propyl]-2-pyrrolidinone], the IC50 was found to be 1.7 µM.

In the case of `CNc1cc(-c2c(-c3ccc(F)cc3)nn3ccccc23)cc(F)n1` [Example 40, 6-Fluoro-4-[2-(4-fluorophenyl)-pyrazolo[1,5-a]pyridin-3-yl]-N-methyl-2-pyridinamine], the half-inhibitory concentration (IC50) was determined as 5.3 µM. `CN(C)c1cc(-c2c(-c3ccc(F)cc3)nn3cccc(F)c23)ccn1` [Example 41, 4-[4-Fluoro-2-(4-fluorophenyl)-pyrazolo[1,5-a]pyridin-3-yl]-N,N-dimethyl-2-pyridinamine]: the IC50 amounted to 21.6 µM. With `C=CCNc1cc(-c2c(-c3ccc(F)cc3)nn3ccccc23)ccn1` [Example 42, N-Allyl-4-[2-(4-fluorophenyl)pyrazolo-[1,5-a]pyridin-3-yl]-2-pyridinamine], the IC50 was 5 µM. In the case of `Fc1ccc(-c2nn3cc(Cl)ccc3c2-c2ccc(NC3CC3)nc2)cc1` [Example 43, 5-[6-Chloro-2-(4-fluorophenyl)-pyrazolo[1,5-a]pyridin-3-yl]-N-cyclopropyl-2-pyridinamine], the IC50 is 2.4 µM. Take `OCCCNc1cc(-c2c(-c3ccc(F)cc3)nn3ccccc23)c(Br)cn1` [Example 44, 3-({5-Bromo-4-[2-(4-fluorophenyl)-pyrazolo[1,5-a]pyridin-3-yl]-2-pyridinyl}amino)-1-propanol]: the IC50 came to 6.3 µM.

As to `COC(=O)c1ccc2c(-c3ccnc(NCCCOC(C)=O)c3)c(-c3ccc(F)cc3)nn2c1` [Example 45, Methyl 3-(2-{[3-(acetyloxy)propyl]-amino}-4-pyridinyl)-2-(4-fluorophenyl)pyrazolo[1,5-a]pyridine-6-carboxylate], the IC50 was 2.6 µM.
